The record followed here is PubChem BioAssay (NCI).

The structures appear in SMILES notation.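 Test compounds were applied to cells in 96-well plates for 48 hours at 5 doses. GI50 = concentration required for 50% inhibition of growth. Definition used: TGI = concentration required for complete inhibition of growth.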 *1 amine or outer side, *2 acyl side, *3 side chain or, on linkers, in order; H or OH if unused. Where a SMILES comes first, the peptide text is derived from it. [ ]: non-standard residue; d: D form. X32 = C[C@H](N[*:1])C(=O)C(C)(C)C(=O)[*:2]; Hmpa(2S,3S) = CC[C@H](C)[C@H](O)C(=O)O; NMeY = CN[C@@H](Cc1ccc(O)cc1)C(=O)O; NMeL = CN[C@@H](CC(C)C)C(=O)O; NMeV = CN[C@H](C(=O)O)C(C)C; βAla = NCCC(=O)O

Holding throughout (assay): inhibition of tumour cell growth, NCI panel, 48 h
In assay [1] the test system is TK-10 renal.
The subject of assay [2] is MDA-MB-231 breast.
Assay [3] relates to UO-31 renal.
Assay [4] has as its system LOX IMVI melanoma.
Assay [5] has as its system SF-539 CNS.
The test system of assay [6] is MDA-MB-435.
Assay [7] has as its system BT-549 breast.
In assay [8] the test system is SN12C renal.
The subject of assay [9] is RXF 393 renal.
For assay [10], the system named is SF-295 CNS.
For assay [11], the system named is UACC-257 melanoma.

For the molecule `CCCCn1c2c(n(CCCC)c1=S)-c1c(n(CCCC)c(=S)n1CCCC)SSc1c(n(CCCC)c(=S)n1CCCC)-c1c(n(CCCC)c(=S)n1CCCC)SSc1c(n(CCCC)c(=S)n1CCCC)-c1c(n(CCCC)c(=S)n1CCCC)SS2`, the TGI in [1] was > 50 µM; in assay [2], 8.67 µM; in [3] it was 16.5 µM; in [4], 13.3 µM; in assay [5], > 50 µM; in assay [6], > 42.1 µM. For the same molecule, the TGI in [7] is > 50 µM; in assay [8], > 50 µM; in assay [9], > 50 µM; in assay [10], > 37 µM; in assay [11], > 50 µM.

In the case of `Cc1ccc(NC(=O)c2cc(S(=O)(=O)Nc3nc4ncccc4[nH]3)c(SSc3cc(Cl)c(C(=O)Nc4ccc(C)cc4)cc3S(=O)(=O)Nc3nc4ncccc4[nH]3)cc2Cl)cc1`, the TGI in assay [1], in [2], in assay [3], in assay [4], in assay [5] and in assay [6] was > 100 µM in each case. The TGI in assay [7], in assay [8], in [9], in [10] and in assay [11] was > 100 µM each time.

As to `N#Cc1c(N)nc(Sc2ccccc2N)c(C#N)c1-c1ccc(Cl)cc1`, the TGI is > 48.5 µM in assay [1]; 35.7 µM in [2]; 9.64 µM in [3]; 15.3 µM in [4]; 26.7 µM in assay [5]; 37.5 µM in [6]. For the same molecule, the TGI is 33.2 µM in assay [7]; 40.4 µM in assay [8]; 49.9 µM in [9]; 25.9 µM in assay [10]; 62.9 µM in assay [11].

Regarding `O=C(NCCCCCCNC(=O)c1cc(-c2ccccc2)nc2ccccc12)c1cc(-c2ccccc2)nc2ccccc12`, the TGI in [1], in assay [2], in assay [3], in assay [4], in assay [5] and in assay [6] was > 100 µM throughout. The TGI in assay [7], in assay [8], in assay [9], in assay [10] and in assay [11] was > 100 µM each time.

As for `CCCCCCCCCCCCC(O)[C@H]1CC[C@H](C(O)CCCCCC(=O)CCCCC2CC(C(C)=O)C(=O)O2)O1` (some centres not stated), the TGI in assay [1] is > 68.6 µM; in [2], 44.6 µM; in assay [3], 26.9 µM; in [4], 21.6 µM; in assay [5] it was 35.6 µM; in assay [6] it was 35.6 µM. In addition, the TGI in assay [7] was 59.5 µM; in assay [8], 29 µM; in assay [9], 22.2 µM; in assay [10], 37.6 µM; in assay [11] it was 19.1 µM. The GI50 in [2] was 2.8 µM; in assay [4] it was 1.87 µM; in assay [6], 1.92 µM; in assay [8], 12.9 µM; in [10], 2.7 µM; in [11], 1.3 µM.

In the case of `CC(=O)Nc1ccc(C2SCc3nc4ccccc4n32)cc1` (configuration not stated), the TGI in assay [1], in [2], in assay [3], in [4], in assay [5] and in [6] was > 100 µM throughout. Further, the TGI in assay [7] was > 74.6 µM; in [8] it was > 100 µM; in assay [9], > 100 µM; in [10], > 100 µM; in [11], > 100 µM.

On to `CN(C)c1nc(Cl)c2c(-c3ccccc3)c(-c3ccccc3)oc2n1`, for which the TGI in assay [1], in assay [2], in assay [3], in assay [4], in assay [5] and in assay [6] was > 100 µM in each case. For the same molecule, the TGI in assay [7] was 97.7 µM; in assay [8], > 100 µM; in assay [9], 45.2 µM; in [10], > 100 µM; in assay [11], > 100 µM.

As for `O=[N+]([O-])c1ccc(N/N=C/c2ccc(OCCCCCCCCCCCO)cc2)c([N+](=O)[O-])c1`, the TGI in [1] was 33.7 µM; in assay [2], > 94.7 µM; in [3], 36.1 µM; in [4], 59.7 µM; in assay [5] it was 4.22 µM; in assay [6], 11.7 µM. Moreover, the TGI in assay [7] came out at 15.5 µM; in assay [8] it was 14.3 µM; in assay [9], 4.6 µM; in assay [10], 9.6 µM; in assay [11], 15.2 µM.

In the case of `CC[C@H](C)[C@@H]1OC(=O)CCNC(=O)[C@@H](C)NC(=O)C(C)(C)C(=O)[C@H](C)NC(=O)[C@H](Cc2ccc(OC)cc2)N(C)C(=O)[C@H](C(C)C)N(C)C(=O)CNC(=O)[C@H](CC(C)C)N(C)C(=O)CNC1=O` (cyclo(G[NMeL]G[NMeV][NMeY](Me)[X32][dA][βAla][Hmpa(2S,3S)])), the TGI in assay [1] was 8 µM; in assay [2], 11.2 µM; in assay [3] it was 16 µM; in assay [4] it was 10.7 µM; in [5], > 33.6 µM; in [6], > 42.7 µM. In addition, the TGI is 13.6 µM in [7]; > 50 µM in assay [8]; 2 µM in [9]; 24.3 µM in assay [10]; > 25.9 µM in assay [11].

Consider `N[C@H]1CCCC[C@@H]1N1C(=O)c2ccccc2C1(O)c1ccc(Cl)cc1` (some centres not stated), for which the TGI in assay [1] came to 26 µM; in assay [2], 27.5 µM; in assay [3], 24.2 µM; in [4], 22.5 µM; in assay [5] it was 25 µM; in [6], 21.1 µM. For the same molecule, the TGI in [7] came out at 28.8 µM; in assay [8], 27 µM; in assay [9] it was 20.4 µM; in assay [10], 30.9 µM; in [11] it was 11.7 µM.

For `COC(=O)c1ccccc1C1CN=NC12Cc1cc(C)ccc1C2=O` (configuration not stated), the TGI in assay [1], in assay [2], in assay [3], in assay [4], in assay [5] and in assay [6] was > 100 µM each time. Also, the TGI in assay [7], in assay [8], in assay [9], in assay [10] and in [11] was > 100 µM throughout.

Regarding `COc1cc(CNNC(N)=S)cc(OC)c1OC`, the TGI in assay [1], in assay [2], in [3], in assay [4], in [5] and in assay [6] was > 100 µM in each case. In addition, the TGI in assay [7], in assay [8], in assay [9], in assay [10] and in assay [11] was > 100 µM throughout.

As to `CCOC(=O)c1c(N2CCOCC2)[nH]c(=O)c(C(c2ccco2)c2c(O)c(C(=O)OCC)c(N3CCOCC3)[nH]c2=O)c1O`, the TGI in assay [1], in assay [2], in [3], in [4], in assay [5] and in assay [6] was > 100 µM in each case. Moreover, the TGI in assay [7], in assay [8], in assay [9], in [10] and in assay [11] was > 100 µM each time.

In the case of `C=CC(Cl)(CBr)CCC(Br)C(C)(C)Cl` (configuration not stated), the TGI in assay [1] was 38.6 µM; in [2] it was 27.6 µM; in [3], 29.3 µM; in [5], 30.5 µM; in assay [6], 30.3 µM; in assay [7], 38.6 µM. The TGI was 48.4 µM in [8], 31.2 µM in assay [9], 28.8 µM in assay [10] and 27.5 µM in [11].

In the case of `O=C1C(Cl)=C(Nc2ccc(S(=O)(=O)Nc3ccccn3)cc2)C(=O)c2ccccc21`, the TGI amounted to 22.7 µM in assay [1]; 22 µM in assay [2]; 29 µM in assay [3]; 4.59 µM in [4]; 10.3 µM in assay [5]; 14 µM in assay [6]. Also, the TGI in assay [7] came out at 29.8 µM; in assay [8] it was 30.4 µM; in assay [9], 22.6 µM; in assay [10], 35.2 µM; in assay [11], 10.3 µM.

In the case of `COc1ccc(C(=O)/C=C/c2cc(O)c(O)c(F)c2F)c(OC)c1`, the TGI in assay [1] is 88 µM; in [2] it was 58.2 µM; in assay [3] it was > 100 µM; in assay [4] it was > 100 µM; in [5], 65.3 µM; in assay [6], 82.9 µM. The TGI is 70.5 µM in [7]; 32.2 µM in [8]; 59.6 µM in assay [9]; > 100 µM in [10]; 41.8 µM in assay [11].

As to `Nc1onc2c1Cc1c(noc1N)-c1ccccc1-2`, the TGI in assay [1], in assay [2], in [3], in assay [4], in [5] and in assay [6] was > 100 µM each time. Moreover, the TGI is 50.4 µM in assay [7]; > 100 µM in [8]; > 100 µM in assay [9]; > 100 µM in assay [10]; > 100 µM in assay [11].

As to `COc1ccc2nc(-c3ccc(O)cc3)sc2c1`, the TGI amounted to 70.2 µM in assay [1]; 46.9 µM in assay [2]; 30.1 µM in [3]; 44.9 µM in assay [4]; 37.1 µM in assay [5]; 56 µM in assay [6]. The TGI in [7] worked out at 36.3 µM; in assay [8], 39.5 µM; in assay [9], 40.9 µM; in assay [10], 42.6 µM; in [11], 39 µM.

Turning to `OCCNCNc1nc(NCNCCO)nc(N(CNCCO)CNCCO)n1`, the TGI is 72.1 µM in assay [1]; 52.7 µM in assay [2]; > 73.9 µM in assay [3]; 40.2 µM in assay [4]; 41.3 µM in assay [5]; 35.8 µM in [6]. The TGI was 46 µM in [7]; 60.8 µM in assay [8]; 31.1 µM in [9]; > 61.6 µM in [10]; 40 µM in [11].

Turning to `CC(=O)OCc1ccc2oc(=O)c(C(=O)Oc3ccccc3)cc2c1`, the TGI in assay [1] is 62.8 µM; in [2], 84.2 µM; in assay [3], > 100 µM; in [4], > 100 µM; in [5], > 100 µM; in assay [6], > 100 µM. Further, the TGI in assay [7] is > 100 µM; in [8], 99.2 µM; in assay [9], > 100 µM; in assay [10], > 100 µM; in assay [11], > 100 µM.

`CCCCCCCCCCCCCCCCCCN(C)CC(COP(=O)([O-])OCC[N+](C)(C)C)OC` (configuration not stated): the TGI is 8.46 µM in [1]; > 100 µM in assay [2]; 48.8 µM in assay [3]; 26 µM in assay [4]; 40.3 µM in assay [5]; 97 µM in [6]. In addition, the TGI in [7] was > 100 µM; in [8], > 50.6 µM; in assay [9] it was 8.55 µM; in assay [10], 23.9 µM; in [11], 56.4 µM.

As for `Oc1ccc(-c2nc3ccc(Cl)cc3s2)cc1`, the TGI in [1] amounted to 34.7 µM; in [2], 45.5 µM; in assay [3] it was 27.8 µM; in [4], 45.9 µM; in assay [5], 34.7 µM; in [6] it was 35.6 µM. The TGI in assay [7] was determined as 33.3 µM; in assay [8] it was 35.7 µM; in assay [9] it was 44 µM; in assay [10], 34.1 µM; in assay [11], 34.4 µM.

For `Cn1c(-c2cccc([N+](=O)[O-])c2)[n+](C)c2ccccc21`, the TGI in assay [1], in [2], in assay [3], in [4], in [5] and in [6] was > 100 µM each time. Moreover, the TGI in [7], in assay [9], in assay [10] and in assay [11] was > 100 µM each time.
